SMILES | melting point [°C]
CCC(=O)Nc1nc(-c2cccc(Cl)c2)c(-c2ccncc2)s1 [Reference Example 23-50, N-[4-(3-chlorophenyl)-5-(4-pyridyl)-1,3-thiazol-2-yl]propionamide] | 289 to 290
Cc1ccc(-c2nc(N)sc2-c2ccncc2)cc1C [Reference Example 23-125, [4-(3,4-dimethylphenyl)-5-(4-pyridyl)-1,3-thiazol-2-yl]amine] | 248 to 250
COc1ccc(-c2nc(NC(=O)c3cccnc3)sc2-c2ccncc2)cc1 [Reference Example 23-101, N-[4-(4-methoxyphenyl)-5-(4-pyridyl)-1,3-thiazol-2-yl]nicotinamide] | 278 to 281
CCC(=O)Nc1nc(-c2cccc(C)c2)c(-c2ccncc2)s1 [Reference Example 23-52, N-[4-(3-methylphenyl)-5-(4-pyridyl)-1,3-thiazol-2-yl]propionamide] | 258 to 260
CC(=O)Nc1nc(-c2cccc(Cl)c2)c(-c2ccncc2)s1 [Reference Example 23-49, N-[4-(3-chlorophenyl)-5-(4-pyridyl)-1,3-thiazol-2-yl]acetamide] | 290 to 293
Nc1nc(-c2ccc(Cl)cc2)c(-c2ccncc2)s1 [Reference Example 23-61, [4-(4-chlorophenyl)-5-(4-pyridyl)-1,3-thiazol-2-yl]amine] | > 300
CC(=O)Nc1nc(-c2ccccc2)c(-c2ccncc2)s1 [Reference Example 23-71, N-[4-phenyl-5-(4-pyridyl)-1,3-thiazol-2-yl]acetamide] | 294 to 297
Nc1nc(-c2ccccc2)c(-c2ccncc2)s1 [Reference Example 13-15, [4-phenyl-5-(4-pyridyl)-1,3-thiazol-2-yl]amine] | 248 to 250
COc1ccc(-c2nc(Nc3ccccc3)sc2-c2ccncc2)cc1 [Reference Example 23-80, N-phenyl-[4-(4-methoxyphenyl)-5-(4-pyridyl)-1,3-thiazol-2-yl]amine] | 287 to 289
Nc1nc(-c2cccc(Cl)c2)c(-c2ccncc2)s1 [Reference Example 23-59, [4-(3-chlorophenyl)-5-(4-pyridyl)-1,3-thiazol-2-yl]amine] | 256 to 258
CC(=O)Nc1nc(-c2cccc(C)c2)c(-c2ccncc2)s1 [Reference Example 23-51, N-[4-(3-methylphenyl)-5-(4-pyridyl)-1,3-thiazol-2-yl]acetamide] | 287 to 289
Cc1ccc(-c2nc(N)sc2-c2ccncc2)cc1 [Reference Example 23-62, [4-(4-methylphenyl)-5-(4-pyridyl)-1,3-thiazol-2-yl]amine] | 296 to 298
CNc1nc(-c2ccccc2)c(-c2ccncc2)s1 [Reference Example 13-47, N-methyl [4-phenyl-5-(4-pyridyl)-1,3-thiazol-2-yl]amine] | 191 to 192
CNc1nc(-c2ccc3c(c2)CCC3)c(-c2cccnc2)s1 [13-74] | 172 to 173
COc1ccc(-c2nc(N)sc2-c2ccncc2)cc1 [Reference Example 13-14, [4-(4-methoxyphenyl)-5-(4-pyridyl)-1,3-thiazol-2-yl]amine] | 282 to 284
O=C(Cc1ccccc1)Nc1nc(-c2ccccc2)c(-c2ccncc2)s1 [Reference Example 23-29, 2-phenyl-N-[4-phenyl-5-(4-pyridyl)-1,3-thiazol-2-yl]acetamide] | 233 to 234
CNc1nc(-c2ccc(F)cc2)c(-c2ccncc2)s1 [Reference Example 13-69, N-methyl [4-(4-fluorophenyl)-5-(4-pyridyl)-1,3-thiazol-2-yl]amine] | 205 to 206
CCNC(=O)Nc1nc(-c2ccc(OC)cc2)c(-c2ccncc2)s1 [Reference Example 23-156, N-ethyl-N′-[4-(4-methoxyphenyl)-5-(4-pyridyl)-1,3-thiazol-2-yl]urea] | 224 to 226
COc1ccc(-c2nc(NC(=O)c3ccncc3)sc2-c2ccncc2)cc1 [Reference Example 23-102, N-[4-(4-methoxyphenyl)-5-(4-pyridyl)-1,3-thiazol-2-yl]isonicotinamide] | 295 to 297
O=C(CCc1ccccc1)Nc1nc(-c2ccccc2)c(-c2ccncc2)s1 [Reference Example 23-30, 3-phenyl-N-[4-phenyl-5-(4-pyridyl)-1,3-thiazol-2-yl]propionamide] | 214 to 216
CCNc1nc(-c2ccc(OC)cc2)c(-c2ccncc2)s1 [Reference Example 23-269, N-ethyl-[4-(4-methoxyphenyl)-5-(4-pyridyl)-1,3-thiazol-2-yl]amine] | 175 to 176

Other lines, results leading:

melting point [°C] | SMILES
191 to 194 | O=S(=O)(Cc1ccc(-c2nc(-c3ccc(F)cc3)c(-c3ccncc3)s2)cc1)Cc1ccc(-c2nc(-c3ccc(F)cc3)c(-c3ccncc3)s2)cc1 [Reference Example 23-313, 4-[4-(4-fluorophenyl)-5-(4-pyridyl)-1,3-thiazol-2-yl]phenylmethylsulfone]
347 to 349 | Cc1cc(C)cc(-c2nc(NC(=O)c3ccc(C(=O)O)cc3)sc2-c2ccncc2)c1 [Reference Example 23-337, 4-[[[4-(3,5-dimethylphenyl)-5-(4-pyridyl)-1,3-thiazol-2-yl]amino]carbonyl]benzoic acid]
350 to 353 | Cc1cc(C)cc(-c2nc(NC(=O)c3cccc(C(=O)O)c3)sc2-c2ccncc2)c1 [Reference Example 23-342, 3-[[[4-(3,5-dimethylphenyl)-5-(4-pyridyl)-1,3-thiazol-2-yl]amino]carbonyl]benzoic acid]
101 to 102 | CSc1ccc(-c2nc(-c3cccc(C)c3)c(-c3ccncc3)s2)cc1 [Reference Example 44-7, methyl 4-[4-(3-methylphenyl)-5-(4-pyridyl)-1,3-thiazol-2-yl]phenylsulfide]
217 to 219 | COc1ccc(-c2nc(NC(=O)Nc3ccccc3)sc2-c2ccncc2)cc1 [Reference Example 23-296, N-[4-(4-methoxyphenyl)-5-(4-pyridyl)-1,3-thiazol-2-yl]-N′-phenylurea]
161 to 164 | Cc1ccc(-c2nc(-c3ccc(C[S+]([O-])Cc4ccc(-c5nc(-c6ccc(C)c(C)c6)c(-c6ccncc6)s5)cc4)cc3)sc2-c2ccncc2)cc1C [Reference Example 23-327, 4-[4-(3,4-dimethylphenyl)-5-(4-pyridyl)-1,3-thiazol-2-yl]phenylmethylsulfoxide]
194 to 196 | Cc1ccc(-c2nc(-c3ccc(CS(=O)(=O)Cc4ccc(-c5nc(-c6ccc(C)c(C)c6)c(-c6ccncc6)s5)cc4)cc3)sc2-c2ccncc2)cc1C [Reference Example 23-328, 4-[4-(3,4-dimethylphenyl)-5-(4-pyridyl)-1,3-thiazol-2-yl]phenylmethylsulfone]
221 to 222 | COc1ccc(-c2nc(NC(=O)C(C)O)sc2-c2ccncc2)cc1 (centres unmarked) [Reference Example 23-325, 2-hydroxy-N-[4-(4-methoxyphenyl)-5-(4-pyridyl)-1,3-thiazol-2-yl]propionamide]
186 to 188 | Cc1cc(C)cc(-c2nc(NCc3ccccc3)sc2-c2ccncc2)c1 [Reference Example 23-281, N-benzyl-[4-(3,5-dimethylphenyl)-5-(4-pyridyl)-1,3-thiazol-2-yl]amine]
332 to 335 | COc1ccc(-c2nc(NC(=O)c3ccc(C(=O)O)cc3)sc2-c2ccncc2)cc1 [Reference Example 23-299, 4-[[[4-(4-methoxyphenyl)-5-(4-pyridyl)-1,3-thiazol-2-yl]amino]carbonyl]benzoic acid]
167 to 169 | Cc1cc(C)cc(-c2nc(NC(=O)Nc3ccccc3)sc2-c2ccncc2)c1 [Reference Example 23-315, N-[4-(3,5-dimethylphenyl)-5-(4-pyridyl)-1,3-thiazol-2-yl]-N′-phenylurea]
127 to 128 | COc1ccc(-c2nc(-c3ccc(SC)cc3)sc2-c2ccncc2)cc1 [Reference Example 23-300, methyl 4-[2-[4-(methylthio)phenyl]-5-(4-pyridyl)-1,3-thiazol-4-yl]phenyl ether]
202 to 204 | O=S(=O)(Cc1ccc(-c2nc(-c3ccc(Cl)cc3)c(-c3ccncc3)s2)cc1)Cc1ccc(-c2nc(-c3ccc(Cl)cc3)c(-c3ccncc3)s2)cc1 [Reference Example 23-314, 4-[4-(4-chlorophenyl)-5-(4-pyridyl)-1,3-thiazol-2-yl]phenylmethylsulfone]
165 to 168 | CCCCNc1nc(-c2cc(C)cc(C)c2)c(-c2ccncc2)s1 [Reference Example 23-280, N-butyl-[4-(3,5-dimethylphenyl)-5-(4-pyridyl)-1,3-thiazol-2-yl]amine]
177 to 180 | CCCNc1nc(-c2cc(C)cc(C)c2)c(-c2ccncc2)s1 [Reference Example 23-276, N-propyl-[4-(3,5-dimethylphenyl)-5-(4-pyridyl)-1,3-thiazol-2-yl]amine]
228 to 230 | COc1ccc(-c2nc(NC(=O)CO)sc2-c2ccncc2)cc1 [Reference Example 23-329, 2-hydroxy-N-[4-(4-methoxyphenyl)-5-(4-pyridyl)-1,3-thiazol-2-yl]acetamide]
135 to 137 | Fc1ccc(-c2nc(-c3ccccc3)sc2-c2ccncc2)cc1 [Reference Example 44-1, 4-(4-fluorophenyl)-2-phenyl-5-(4-pyridyl)-1,3-thiazole]
141 to 142 | CCCNc1nc(-c2ccc(OC)cc2)c(-c2ccncc2)s1 [Reference Example 23-290, N-propyl-[4-(4-methoxyphenyl)-5-(4-pyridyl)-1,3-thiazol-2-yl]amine]
161 to 163 | COc1ccc(-c2nc(NC(C)C)sc2-c2ccncc2)cc1 [Reference Example 23-291, N-isopropyl-[4-(4-methoxyphenyl)-5-(4-pyridyl)-1,3-thiazol-2-yl]amine]
159 to 161 | Cc1ccc(-c2nc(-c3ccc(CSCc4ccc(-c5nc(-c6ccc(C)c(C)c6)c(-c6ccncc6)s5)cc4)cc3)sc2-c2ccncc2)cc1C [Reference Example 23-326, 4-[4-(3,4-dimethylphenyl)-5-(4-pyridyl)-1,3-thiazol-2-yl]phenylmethylsulfide]

From patent publication US6962933B1, “Method for inhibiting p38 MAP kinase or TNF-α production using a 1,3-thiazole” (Takeda Pharmaceutical Company Limited, priority 1999, dated 2005)
